Molecular target: human IDO1 (Homo sapiens, UniProt P14902)
Test: Assessment of human IDO-1 inhibitory activity in Hela cells (Interferon-gamma stimulated HeLa cells, Ehrlich reagent, absorbance 490 nm)
Assay type: cell-based
Set-up: endogenous in cells; host or cells: HeLa cells stimulated with interferon-gamma
Settings: Hela Human IDO-1 cellular assay
Summary of the method: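 HeLa cells pre-incubated with compound 1 h at 37 °C, then stimulated with human IFN-γ (10 ng/ml final) or murine IFN-γ (5 ng/ml final) for 18 h. Kynurenine read with Ehrlich reagent at 490 nm after TCA (3%) and 50 °C treatment; IC50 normalized to unstimulated (100%) and IFN-γ-only (0%) wells.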

human IDO1, sequence (P14902 whole entry): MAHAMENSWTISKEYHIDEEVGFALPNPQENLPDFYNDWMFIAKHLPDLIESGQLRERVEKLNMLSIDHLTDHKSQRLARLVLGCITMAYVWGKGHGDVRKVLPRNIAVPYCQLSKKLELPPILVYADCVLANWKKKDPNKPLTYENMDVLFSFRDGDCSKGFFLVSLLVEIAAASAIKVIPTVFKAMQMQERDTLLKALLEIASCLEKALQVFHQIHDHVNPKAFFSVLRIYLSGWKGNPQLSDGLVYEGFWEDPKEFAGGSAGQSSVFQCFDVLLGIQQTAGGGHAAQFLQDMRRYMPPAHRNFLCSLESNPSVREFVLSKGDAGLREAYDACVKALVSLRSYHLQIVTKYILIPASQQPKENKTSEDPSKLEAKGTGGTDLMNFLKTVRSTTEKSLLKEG

IC50 [nM] | SMILES
> 50 | CCC1COCCN1c1ccc([C@@H](COC)CC(=O)O)cc1Nc1ccc(C#N)c(F)c1 (single isomer, unassigned) [Example 1282]
> 50 | CCN(c1ccc([C@@H](COC)CC(=O)O)cc1Nc1cccc(OC(F)(F)C(F)F)c1)C1CCOCC1 (single isomer, unassigned) [Example 360]
< 50 | CCOc1ncc(Nc2cc(C(C)CC(=O)O)ccc2N(CC)C2CCOCC2)cn1 (single isomer, unassigned) [Example 632, 3-(3-((2-ethoxypyrimidin-5-yl)amino)-4-(ethyl (tetrahydro-2H-pyran-4-yl)amino)phenyl)butanoic acid]
> 50 | CCOc1ncc(Nc2cc([C@H](CC)Cc3cnco3)ccc2N(CC)C2CCOCC2)cn1 [Example 1335, (R)-N2-(2-Ethoxypyrimidin-5-yl)-N1-ethyl-4-(1-(oxazol-5-yl)butan-2-yl)-N1-(tetrahydro-2H-pyran-4-yl)benzene-1,2-diamine]
